Columns and labels:
[1] = target: T1, murine COX-2 (mCOX-2) (Mus musculus, UniProt Q05769); test: Instantaneous inhibition of mCOX-2 oxygenation of AA; assay type: biochemical; details: substrate AA
T1 sequence (Q05769 18-604): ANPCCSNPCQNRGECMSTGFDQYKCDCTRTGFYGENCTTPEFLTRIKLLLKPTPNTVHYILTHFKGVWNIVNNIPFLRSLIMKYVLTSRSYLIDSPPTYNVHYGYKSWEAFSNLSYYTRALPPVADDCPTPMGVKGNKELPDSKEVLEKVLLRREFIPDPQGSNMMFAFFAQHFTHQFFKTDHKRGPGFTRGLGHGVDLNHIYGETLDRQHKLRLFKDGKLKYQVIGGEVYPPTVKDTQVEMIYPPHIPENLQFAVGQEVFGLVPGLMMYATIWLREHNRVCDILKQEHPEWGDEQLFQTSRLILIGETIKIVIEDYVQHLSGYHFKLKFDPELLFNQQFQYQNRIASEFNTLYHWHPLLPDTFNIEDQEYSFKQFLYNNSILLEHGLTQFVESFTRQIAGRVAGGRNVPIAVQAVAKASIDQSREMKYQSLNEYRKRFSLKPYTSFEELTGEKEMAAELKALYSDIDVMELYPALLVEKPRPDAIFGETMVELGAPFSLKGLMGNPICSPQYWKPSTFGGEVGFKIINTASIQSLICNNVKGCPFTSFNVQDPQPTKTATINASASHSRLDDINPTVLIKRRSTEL

[2] = target: T1, murine COX-2 (mCOX-2); test: Instantaneous inhibition of mCOX-2 oxygenation of 2-AG; assay type: biochemical; details: substrate 2-AG
[3] = target: T2, mCOX-2 (Mus musculus, UniProt Q05769); test: IC50 for inhibition of mCOX-2 oxygenation of AA after preincubation; assay type: biochemical, murine; details: read-out: IC50 for inhibition of AA oxygenation; 2 min preincubation; 50 μM AA
T2 sequence (Q05769 18-604): T1 sequence (Q05769 18-604)

Row | Mode of inhibition of AA oxygenation [1] | Mode of inhibition of 2-AG oxygenation [2] | Oxygenation of 2-AG at 5 μM inhibitor ([2]; mefenamate 5 μM) | IC50 [3] [µM] | SMILES
1 | competitive | noncompetitive | completely inhibited |  | Cc1cccc(Nc2ccccc2C(=O)O)c1C [mefenamic acid]
2 |  |  |  | ~500 | COc1ccc2c(c1)c(CC(=O)O)cn2C(=O)c1ccc(Cl)cc1 [2′-des-methylindomethacin]
